# Assay results: PubChem BioAssay (NCI)
#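 Compound exposure: 48 hours, 5 concentrations, 96-well plates. Abbreviation: GI50, concentration required for 50% inhibition of growth. Definition used: TGI = concentration required for complete inhibition of growth.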
# Key:
# Assay in all cases: NCI-60 cell line screen, 48 h
# HOP-92 NSCLC = tested on: HOP-92 NSCLC
# MCF7 breast = tested on: MCF7 breast
# CAKI-1 renal = tested on: CAKI-1 renal
# TK-10 renal = tested on: TK-10 renal
# SK-MEL-5 melanoma = tested on: SK-MEL-5 melanoma
# U251 CNS = tested on: U251 CNS
# SK-MEL-28 melanoma = tested on: SK-MEL-28 melanoma
# UACC-62 melanoma = tested on: UACC-62 melanoma
# KM12 colon = tested on: KM12 colon
# SK-OV-3 ovarian = tested on: SK-OV-3 ovarian
# LOX IMVI melanoma = tested on: LOX IMVI melanoma
# MALME-3M melanoma = tested on: MALME-3M melanoma
SMILES,TGI (HOP-92 NSCLC),TGI (MCF7 breast),TGI (CAKI-1 renal),TGI (TK-10 renal),TGI (SK-MEL-5 melanoma),TGI (U251 CNS),TGI (SK-MEL-28 melanoma),TGI (UACC-62 melanoma),TGI (KM12 colon),TGI (SK-OV-3 ovarian),TGI (LOX IMVI melanoma),TGI (MALME-3M melanoma),GI50 (HOP-92 NSCLC),GI50 (MCF7 breast),GI50 (SK-MEL-5 melanoma),GI50 (U251 CNS),GI50 (SK-MEL-28 melanoma),GI50 (UACC-62 melanoma),GI50 (KM12 colon),GI50 (MALME-3M melanoma)
CC1(C)CCCCCC(C)(CCCCCCCCCCCO)C1=O (stereo unspecified),31.2 µM,29.8 µM,28.6 µM,24.5 µM,31.3 µM,31.1 µM,32 µM,29.4 µM,32.7 µM,31.7 µM,28.7 µM,29.8 µM,,,,,,,,
COc1cc(S(=O)(=O)Nc2ccc(-c3csc(N4C(=O)C(C)SC4c4ccccc4O)n3)cc2)ccc1Cl (stereo unspecified),> 100 µM,> 100 µM,> 100 µM,,> 100 µM,,55.6 µM,> 100 µM,> 100 µM,> 100 µM,> 100 µM,35.5 µM,,,,,,,,
NC(N)=NS(=O)(=O)c1ccc(Nc2c3ccccc3nc3c(C(=O)NC(CO)(CO)CO)cccc23)cc1,48.9 µM,95.3 µM,> 100 µM,94.5 µM,57.5 µM,> 100 µM,> 100 µM,94.6 µM,38.5 µM,> 100 µM,> 100 µM,45.3 µM,,,,,,,,
O=C1c2ccccc2C(=O)c2c1oc(=O)c1ccccc21,11.9 µM,13.6 µM,15.5 µM,18.9 µM,4.51 µM,12.2 µM,17 µM,8.36 µM,12.8 µM,> 25 µM,9.9 µM,5.79 µM,,,,,,,,
O=c1[nH]c(=O)n(C2OC(CO)C(O)C2O)cc1OCCc1ccccc1 (stereo unspecified),> 100 µM,> 100 µM,> 100 µM,> 100 µM,> 100 µM,,> 100 µM,> 100 µM,> 100 µM,> 100 µM,> 100 µM,> 100 µM,,,,,,,,
O=C1N(CN2CCOCC2)CN(CN2CCOCC2)C(=O)N1Cc1ccccc1,73 µM,82.6 µM,92.8 µM,> 100 µM,44.2 µM,56.8 µM,34.8 µM,49.4 µM,57.4 µM,> 100 µM,33 µM,29.5 µM,,,,,,,,
c1ccc2c(c1)CCN1CCc3c([nH]c4ccccc34)C21 (stereo unspecified),72.2 µM,> 100 µM,> 100 µM,> 100 µM,29.7 µM,> 100 µM,48.8 µM,> 100 µM,> 100 µM,> 100 µM,53.1 µM,38.3 µM,,,,,,,,
COP(=O)(OC)C(O)/C=C/c1ccco1 (stereo unspecified),> 100 µM,> 100 µM,> 100 µM,,> 100 µM,> 100 µM,> 100 µM,> 100 µM,> 100 µM,> 100 µM,> 100 µM,> 100 µM,,,,,,,,
Cc1nn(-c2ccccc2)c2c1C(c1cc3ccccc3nc1Cl)NC(=S)N2 (stereo unspecified),96.6 µM,> 100 µM,> 100 µM,> 100 µM,> 100 µM,83 µM,,> 100 µM,> 100 µM,> 100 µM,56.6 µM,> 100 µM,,,,,,,,
CC(=O)O[C@H]1[C@H](OC(C)=O)[C@@H](CN=[N+]=[N-])OCO[C@@H]1CN=[N+]=[N-],> 100 µM,> 100 µM,,> 100 µM,> 100 µM,> 100 µM,> 100 µM,> 100 µM,> 100 µM,> 100 µM,> 100 µM,> 100 µM,,,,,,,,
O=C(N/N=C/C=C/c1ccc([N+](=O)[O-])o1)c1ccc(Br)s1,25.7 µM,> 100 µM,66.2 µM,46.5 µM,46.1 µM,> 100 µM,52.3 µM,49.5 µM,40.5 µM,> 100 µM,60.7 µM,37.9 µM,,,,,,,,
COCC(=O)OC1CCn2c1nc1c2C(=O)C(C)=C(NC(C)=O)C1=N (stereo unspecified),9.11 µM,3.52 µM,23.2 µM,32 µM,5.92 µM,17.9 µM,10.6 µM,3.34 µM,38.2 µM,37.5 µM,6.04 µM,2.7 µM,,,,,,,,
O=c1oc2cccnc2n1CCN1CCN(c2ccc(Oc3ccccc3)cc2)CC1,> 100 µM,> 100 µM,> 100 µM,> 100 µM,> 100 µM,> 100 µM,> 100 µM,,,> 100 µM,> 100 µM,> 100 µM,,,,,,,,
CCN(CC)c1nc(N(C)C)c2ccc(OC)cc2n1,> 100 µM,25 µM,> 100 µM,> 100 µM,24.7 µM,71.8 µM,32.4 µM,24.8 µM,48.2 µM,52.5 µM,42.3 µM,55.1 µM,,,,,,,,
CCCN1CN(c2ccccc2)C2(CCN(CCCC(=O)c3ccc(F)cc3)CC2)C1=O,8.98 µM,11.9 µM,41.1 µM,22.4 µM,4.84 µM,30.7 µM,34.3 µM,31.3 µM,31 µM,43.1 µM,17.1 µM,30.1 µM,,,,,,,,
O=Cc1[nH]c(=O)[nH]c(=O)c1CCl,> 100 µM,> 100 µM,> 100 µM,> 100 µM,> 100 µM,> 100 µM,> 100 µM,> 100 µM,> 100 µM,> 100 µM,> 81.7 µM,> 100 µM,,,,,,,,
CCOC(=O)/C=C(\C(=O)OCC)n1cnc2c(N)ncnc21,7.12 µM,11.9 µM,2.86 µM,17.3 µM,28.6 µM,20.8 µM,27.8 µM,23.8 µM,30.5 µM,32 µM,11.9 µM,15.8 µM,,,,,,,,
COc1ccc(N2CCN(Cc3c(C(C)=O)[n+](=O)c4ccccc4n3[O-])CC2)cc1,> 100 µM,> 100 µM,> 100 µM,67.5 µM,> 100 µM,> 100 µM,> 100 µM,> 100 µM,> 100 µM,> 100 µM,> 100 µM,60.6 µM,,,,,,,,

SMILES,TGI (HOP-92 NSCLC),TGI (MCF7 breast),TGI (CAKI-1 renal),TGI (TK-10 renal),TGI (SK-MEL-5 melanoma),TGI (U251 CNS),TGI (SK-MEL-28 melanoma),TGI (UACC-62 melanoma),TGI (KM12 colon),TGI (SK-OV-3 ovarian),TGI (LOX IMVI melanoma),TGI (MALME-3M melanoma),GI50 (HOP-92 NSCLC),GI50 (MCF7 breast),GI50 (SK-MEL-5 melanoma),GI50 (U251 CNS),GI50 (SK-MEL-28 melanoma),GI50 (UACC-62 melanoma),GI50 (KM12 colon),GI50 (MALME-3M melanoma)
NC1=NN(c2ccccc2)C2(c3ccncc3C(=O)O)C1C(N)=NN2c1ccccc1 (stereo unspecified),> 100 µM,> 100 µM,> 100 µM,,> 100 µM,> 100 µM,> 100 µM,> 100 µM,> 100 µM,> 100 µM,> 100 µM,> 100 µM,,,,,,,,
CC(=O)N1C(C(=O)NNc2ccccc2)CSC1c1ccccc1 (stereo unspecified),> 100 µM,> 100 µM,> 100 µM,> 100 µM,> 100 µM,> 100 µM,,61.8 µM,> 100 µM,> 100 µM,> 100 µM,> 100 µM,,,,,,,,
COc1ccc(C(=O)/C=C/c2ccc(OCC(=O)O)cc2)cc1,> 100 µM,> 100 µM,> 100 µM,> 100 µM,> 100 µM,79.9 µM,> 100 µM,> 100 µM,> 100 µM,,> 100 µM,> 100 µM,,,,,,,,
C[C@@H]1OC(=O)C[C@H]2CC(=O)N(CCC3CN(S(=O)(=O)C(F)(F)F)c4ccc(Cc5ccc6c(c5)C(CCN5C[C@H]7[C@@H](CC(=O)O[C@H]7C)CC5=O)CN6S(=O)(=O)C(F)(F)F)cc43)C[C@@H]21 (stereo partly specified),> 100 µM,> 100 µM,> 100 µM,> 100 µM,> 100 µM,> 100 µM,> 100 µM,> 100 µM,> 100 µM,> 100 µM,> 100 µM,> 100 µM,,,,,,,,
COc1cc(-c2c3c([nH]c(=O)c2C#N)-c2cc([N+](=O)[O-])ccc2CCC3)cc(OC)c1OC,> 100 µM,44.5 µM,87.9 µM,> 100 µM,26.7 µM,> 100 µM,> 100 µM,32.1 µM,> 100 µM,66.4 µM,> 100 µM,73.9 µM,,,,,,,,
CC(=O)Nc1ccc(S(=O)(=O)[N-]C2C(=O)c3ccccc3C(=O)C2[n+]2ccccc2)cc1 (stereo unspecified),33.6 µM,31.8 µM,> 100 µM,> 100 µM,15.3 µM,27.3 µM,30.1 µM,28.9 µM,27.9 µM,> 100 µM,> 100 µM,25.1 µM,,,,,,,,
O=C1NC(N/N=C/c2ccccc2)=N/C1=C\c1cccs1,32.4 µM,46.5 µM,33.3 µM,71.5 µM,20.7 µM,32.8 µM,37.7 µM,38 µM,> 70.9 µM,39.1 µM,23.4 µM,27.8 µM,,,,,,,,
CC(=O)OCC1OC(n2c3c(cc(C#N)c2=S)CCCCCC3)C(OC(C)=O)C(OC(C)=O)C1OC(C)=O (stereo unspecified),> 100 µM,> 100 µM,,> 100 µM,> 100 µM,> 100 µM,> 100 µM,> 100 µM,> 100 µM,,49.8 µM,> 100 µM,,,,,,,,
Cc1cc(C)nc(NS(=O)(=O)c2ccc(NNC(=O)c3cccc4c(NNc5ccc(S(=O)(=O)Nc6nc(C)cc(C)n6)cc5)c5ccccc5nc34)cc2)n1,70.3 µM,62.4 µM,41.8 µM,67.7 µM,33 µM,46.6 µM,48.7 µM,58.7 µM,35.6 µM,87.1 µM,31.3 µM,51.8 µM,,,,,,,,
O=c1c[n+](-c2ccccc2)[nH]o1,> 100 µM,> 100 µM,> 100 µM,> 100 µM,> 100 µM,> 100 µM,> 100 µM,> 100 µM,> 100 µM,> 100 µM,> 100 µM,> 100 µM,,,,,,,,
COc1cc(/C=C/c2sc3ccccc3[n+]2C)ccc1N(C)C,34.9 µM,19.5 µM,> 100 µM,32 µM,18.5 µM,21.8 µM,25.7 µM,22.4 µM,21.7 µM,54.8 µM,31.9 µM,19.8 µM,13 µM,6.78 µM,5.49 µM,8.06 µM,12.4 µM,10.4 µM,10.1 µM,5.85 µM
OCCCCn1cc(Cn2ncc3c(SCc4ccccc4)ncnc32)nn1,> 100 µM,> 100 µM,> 100 µM,> 100 µM,54.5 µM,> 100 µM,> 100 µM,> 100 µM,> 100 µM,> 100 µM,> 100 µM,> 100 µM,,,,,,,,
COc1cc(C2c3[nH]c4ccc(F)cc4c3C[C@H]3COC(=O)N23)cc(OC)c1O (stereo partly specified),> 100 µM,> 100 µM,44.7 µM,,34.7 µM,25 µM,33.6 µM,32.6 µM,26.3 µM,57.2 µM,31.3 µM,55.7 µM,,,,,,,,
O/N=C1/CCCCCC1NO (stereo unspecified),> 100 µM,> 100 µM,> 100 µM,> 100 µM,> 100 µM,> 100 µM,> 100 µM,> 100 µM,> 100 µM,> 100 µM,> 100 µM,> 100 µM,,,,,,,,
CC(C)CCNC(=O)c1ccc(CNC(=O)/C=C/c2csc(-c3ccccc3)n2)cc1,> 100 µM,> 100 µM,> 100 µM,> 100 µM,> 100 µM,96.8 µM,> 100 µM,> 100 µM,> 100 µM,> 100 µM,> 100 µM,> 100 µM,,,,,,,,
CC(C)/C(Cl)=N\OC(=O)Nc1ccc(F)c([N+](=O)[O-])c1,4.77 µM,> 58.1 µM,3.27 µM,13.5 µM,22.4 µM,31.1 µM,17.4 µM,39.1 µM,28.5 µM,34 µM,10.7 µM,3 µM,,,,,,,,
COc1cc(C=Nc2ccc(S(N)(=O)=O)cc2)cc(OC)c1,> 50 µM,> 50 µM,> 50 µM,> 50 µM,> 50 µM,> 50 µM,> 50 µM,> 50 µM,> 50 µM,> 50 µM,> 50 µM,> 50 µM,,,,,,,,
COP(=O)(OC)C(O)/C=C(\Cl)c1ccc(Cl)cc1 (stereo unspecified),45.3 µM,> 100 µM,> 100 µM,> 100 µM,67.8 µM,> 100 µM,> 100 µM,> 100 µM,> 100 µM,> 100 µM,52.1 µM,> 100 µM,,,,,,,,
